{"source": "patent US20020128311A1", "about": "“Halocyanoacetamide antimicrobial compositions” (priority 2000, published 2002)", "assay_type_in_all_cases": "physicochemical", "key": {"[1]": {"experiment": "Freeze/thaw stability of DCOIT/DBNPA/surfactant/GTA compositions, HPLC", "details": "for % DBNPA retained after Freezing and Thawing: thawed at 25° C. 5 hours, three times", "procedure": "Samples were prepared to test the freeze/thaw stability of compositions of the present invention. The freeze/thaw test was conducted for compositions of […], surfactant and GTA prepared in Example 4. Samples (20 g each) were stored at -10° C. or -25° C. for 19 hours to be frozen; samples were then stored at 25° C. for 5 hours to be thawed. This sequence was repeated three times. Then the concentrations of active ingredients ([…]) in the compositions were determined by HPLC."}, "[2]": {"experiment": "Stability of DBNPA in various solvents, stored at 60° C., HPLC", "details": "for % DBNPA retained: 2.0 g DBNPA + 8.0 g solvent"}, "[3]": {"experiment": "Stability of DCOIT and DBNPA mixtures in GTA, stored at 40° C., HPLC", "details": "4% DCOIT", "procedure": "[…] […] Surfactants were TweenTM 20, TritonTM DF-12 or TritonTM CF-10. These compositions were stored at 40° C. for 6 weeks and the concentrations of active ingredients ([…]) in the compositions were determined by HPLC at the indicated time intervals."}, "[4]": {"experiment": "Stability of CMIT and DBNPA mixtures in GTA, stored at 50° C., HPLC", "details": "[…]% CMIT/MIT mixture", "procedure": "Surfactants were TweenTM 20, TritonTM DF-12 or TritonTM CF-10. The compositions were stored at 50° C. for 4 weeks and the concentrations of active ingredients ([…]) in the compositions were determined by HPLC at the indicated time intervals."}}}
{"compound": "N#CC(Br)(Br)C(N)=O", "note": "[DBNPA, 2,2-dibromo-3-nitrilopropionamide]", "values": [{"measurement": "% DBNPA retained after Freezing and Thawing", "setting": "[1]; Example 4 composition with Triton CF-10, frozen at −10° C. 19 hours", "value": 98.8, "unit": "%"}, {"measurement": "% DBNPA retained after Freezing and Thawing", "setting": "[1]; Example 4 composition with Triton CF-10, frozen at −25° C. 19 hours", "value": 98.8, "unit": "%"}, {"measurement": "% DBNPA retained after Freezing and Thawing", "setting": "[1]; Example 4 composition with Triton DF-12, frozen at −10° C. 19 hours", "value": 98.8, "unit": "%"}, {"measurement": "% DBNPA retained after Freezing and Thawing", "setting": "[1]; Example 4 composition with Triton DF-12, frozen at −25° C. 19 hours", "value": 99, "unit": "%"}, {"measurement": "% DBNPA retained after Freezing and Thawing", "setting": "[1]; Example 4 composition with Tween 20, frozen at −10° C. 19 hours", "value": 99.2, "unit": "%"}, {"measurement": "% DBNPA retained after Freezing and Thawing", "setting": "[1]; Example 4 composition with Tween 20, frozen at −25° C. 19 hours", "value": 99.1, "unit": "%"}, {"measurement": "physical stability (appearance) during freeze/thaw cycling", "setting": "[1]; in GTA solutions in the presence of surfactants", "value": "clear solution, no precipitation or phase separation observed"}, {"measurement": "% retained", "setting": "[2]; after 4 weeks in glycol, amide, ether and ketone solvents", "value": "less than 50%"}, {"measurement": "% DBNPA retained", "setting": "[2]; solvent 62% dipropylene glycol in water (comparative), 1 week", "value": 95, "unit": "%"}, {"measurement": "% DBNPA retained", "setting": "[2]; solvent 62% dipropylene glycol in water (comparative), 4 weeks", "value": 20, "unit": "%"}, {"measurement": "% DBNPA retained", "setting": "[2]; solvent 75% dipropylene glycol in water (comparative), 1 week", "value": 79, "unit": "%"}, {"measurement": "% DBNPA retained", "setting": "[2]; solvent 86% dipropylene glycol in water (comparative), 1 week", "value": 49, "unit": "%"}, {"measurement": "% DBNPA retained", "setting": "[2]; solvent GTA, 1 week", "value": 92, "unit": "%"}, {"measurement": "% DBNPA retained", "setting": "[2]; solvent GTA, 2 weeks", "value": 100, "unit": "%"}, {"measurement": "% DBNPA retained", "setting": "[2]; solvent GTA, 3 weeks", "value": 100, "unit": "%"}, {"measurement": "% DBNPA retained", "setting": "[2]; solvent GTA, 4 weeks", "value": 100, "unit": "%"}, {"measurement": "% DBNPA retained", "setting": "[2]; solvent PGMEA (comparative), 1 week", "value": 80, "unit": "%"}, {"measurement": "% DBNPA retained", "setting": "[2]; solvent PGMEA (comparative), 2 weeks", "value": 65, "unit": "%"}, {"measurement": "% DBNPA retained", "setting": "[2]; solvent PGMEA (comparative), 3 weeks", "value": 61, "unit": "%"}, {"measurement": "% DBNPA retained", "setting": "[2]; solvent PGMEA (comparative), 4 weeks", "value": 45, "unit": "%"}, {"measurement": "% DBNPA retained", "setting": "[2]; solvent diethyl phthalate, 1 week", "value": 100, "unit": "%"}, {"measurement": "% DBNPA retained", "setting": "[2]; solvent diethyl phthalate, 2 weeks", "value": 98, "unit": "%"}, {"measurement": "% DBNPA retained", "setting": "[2]; solvent diethyl phthalate, 3 weeks", "value": 98, "unit": "%"}, {"measurement": "% DBNPA retained", "setting": "[2]; solvent diethyl phthalate, 4 weeks", "value": 98, "unit": "%"}, {"measurement": "% DBNPA retained", "setting": "[2]; solvent dimethyl formamide (comparative), 1 week", "value": 73, "unit": "%"}, {"measurement": "% DBNPA retained", "setting": "[2]; solvent dimethyl formamide (comparative), 2 weeks", "value": 46, "unit": "%"}, {"measurement": "% DBNPA retained", "setting": "[2]; solvent ethyl acetate, 1 week", "value": 100, "unit": "%"}, {"measurement": "% DBNPA retained", "setting": "[2]; solvent ethyl acetate, 2 weeks", "value": 100, "unit": "%"}, {"measurement": "% DBNPA retained", "setting": "[2]; solvent ethyl acetate, 3 weeks", "value": 100, "unit": "%"}, {"measurement": "% DBNPA retained", "setting": "[2]; solvent ethyl acetate, 4 weeks", "value": 100, "unit": "%"}, {"measurement": "% DBNPA retained", "setting": "[2]; solvent methyl amyl ketone (comparative), 1 week", "value": 9, "unit": "%"}, {"measurement": "% DBNPA retained", "setting": "[2]; solvent methyl amyl ketone (comparative), 2 weeks", "value": 12, "unit": "%"}, {"measurement": "% DBNPA retained", "setting": "[2]; solvent methyl amyl ketone (comparative), 3 weeks", "value": 0, "unit": "%"}, {"measurement": "% DBNPA retained", "setting": "[2]; solvent octyl pyrrolidone (comparative), 1 week", "value": 62, "unit": "%"}, {"measurement": "% DBNPA retained", "setting": "[2]; solvent octyl pyrrolidone (comparative), 2 weeks", "value": 50, "unit": "%"}, {"measurement": "% DBNPA retained", "setting": "[2]; solvent octyl pyrrolidone (comparative), 3 weeks", "value": 45, "unit": "%"}, {"measurement": "% DBNPA retained", "setting": "[2]; solvent triethylene glycol dimethyl ether (comparative), 1 week", "value": 15, "unit": "%"}, {"measurement": "% DBNPA retained", "setting": "[2]; solvent triethylene glycol dimethyl ether (comparative), 2 weeks", "value": 0, "unit": "%"}, {"measurement": "% DBNPA retained", "setting": "[3]; 5% Triton CF-10, 66% GTA, 4 Weeks", "value": 93.5, "unit": "%"}, {"measurement": "% DBNPA retained", "setting": "[3]; 5% Triton CF-10, 66% GTA, 6 Weeks", "value": 91.2, "unit": "%"}, {"measurement": "% DBNPA retained", "setting": "[3]; 5% Triton CF-10, 66% GTA, Time 0", "value": 100.0, "unit": "%"}, {"measurement": "% DBNPA retained", "setting": "[3]; 5% Triton DF-12, 66% GTA, 4 Weeks", "value": 92.3, "unit": "%"}, {"measurement": "% DBNPA retained", "setting": "[3]; 5% Triton DF-12, 66% GTA, 6 Weeks", "value": 92.0, "unit": "%"}, {"measurement": "% DBNPA retained", "setting": "[3]; 5% Triton DF-12, 66% GTA, Time 0", "value": 100.0, "unit": "%"}, {"measurement": "% DBNPA retained", "setting": "[3]; 5% Tween 20, 66% GTA, 4 Weeks", "value": 93.3, "unit": "%"}, {"measurement": "% DBNPA retained", "setting": "[3]; 5% Tween 20, 66% GTA, 6 Weeks", "value": 92.1, "unit": "%"}, {"measurement": "% DBNPA retained", "setting": "[3]; 5% Tween 20, 66% GTA, Time 0", "value": 100.0, "unit": "%"}, {"measurement": "% DBNPA retained", "setting": "[4]; 5% Triton CF-10, 45% GTA, 0 Time", "value": 100, "unit": "%"}, {"measurement": "% DBNPA retained", "setting": "[4]; 5% Triton CF-10, 45% GTA, 1 Week", "value": 97, "unit": "%"}, {"measurement": "% DBNPA retained", "setting": "[4]; 5% Triton CF-10, 45% GTA, 2 Weeks", "value": 93, "unit": "%"}, {"measurement": "% DBNPA retained", "setting": "[4]; 5% Triton CF-10, 45% GTA, 3 Weeks", "value": 77, "unit": "%"}, {"measurement": "% DBNPA retained", "setting": "[4]; 5% Triton CF-10, 45% GTA, 4 Weeks", "value": 69, "unit": "%"}, {"measurement": "% DBNPA retained", "setting": "[4]; 5% Triton DF-12, 45% GTA, 0 Time", "value": 100, "unit": "%"}, {"measurement": "% DBNPA retained", "setting": "[4]; 5% Triton DF-12, 45% GTA, 1 Week", "value": 98, "unit": "%"}, {"measurement": "% DBNPA retained", "setting": "[4]; 5% Triton DF-12, 45% GTA, 2 Weeks", "value": 95, "unit": "%"}, {"measurement": "% DBNPA retained", "setting": "[4]; 5% Triton DF-12, 45% GTA, 3 Weeks", "value": 73, "unit": "%"}, {"measurement": "% DBNPA retained", "setting": "[4]; 5% Triton DF-12, 45% GTA, 4 Weeks", "value": 68, "unit": "%"}, {"measurement": "% DBNPA retained", "setting": "[4]; 5% Tween 20, 45% GTA, 0 Time", "value": 100, "unit": "%"}, {"measurement": "% DBNPA retained", "setting": "[4]; 5% Tween 20, 45% GTA, 1 Week", "value": 97, "unit": "%"}, {"measurement": "% DBNPA retained", "setting": "[4]; 5% Tween 20, 45% GTA, 2 Weeks", "value": 71, "unit": "%"}, {"measurement": "% DBNPA retained", "setting": "[4]; 5% Tween 20, 45% GTA, 3 Weeks", "value": 61, "unit": "%"}, {"measurement": "% DBNPA retained", "setting": "[4]; 5% Tween 20, 45% GTA, 4 Weeks", "value": 54, "unit": "%"}, {"measurement": "% DBNPA retained", "setting": "[4]; no surfactant, 50% GTA, 0 Time", "value": 100, "unit": "%"}, {"measurement": "% DBNPA retained", "setting": "[4]; no surfactant, 50% GTA, 1 Week", "value": 98, "unit": "%"}, {"measurement": "% DBNPA retained", "setting": "[4]; no surfactant, 50% GTA, 2 Weeks", "value": 90, "unit": "%"}, {"measurement": "% DBNPA retained", "setting": "[4]; no surfactant, 50% GTA, 3 Weeks", "value": 85, "unit": "%"}, {"measurement": "% DBNPA retained", "setting": "[4]; no surfactant, 50% GTA, 4 Weeks", "value": 78, "unit": "%"}]}
